From US20140135270A1, “MACROCYCLIC COMPOUNDS FOR INHIBITION OF INHIBITORS OF APOPTOSIS” (Ensemble Therapeutics Corp., priority 2012, published 2014)

How the values were obtained:
[1] = target: T1, His-BIR2-3 (125-356, C202A/C213G, XIAP) (Homo sapiens, UniProt P98170, C202A/C213G); assay: XIAP-BIR2-3 Dimeric SMAC Peptide Homogeneous Time Resolved Fluorescence (HTRF) Assay; type: binding; conditions: fluorescein labeled dimeric SMAC peptide
T1 construct: additions of His-BIR2-3 (125-356, C202A/C213G, XIAP), fluorescein labeled dimeric SMAC peptide
T1 sequence (P98170 125-356 C202A/C213G): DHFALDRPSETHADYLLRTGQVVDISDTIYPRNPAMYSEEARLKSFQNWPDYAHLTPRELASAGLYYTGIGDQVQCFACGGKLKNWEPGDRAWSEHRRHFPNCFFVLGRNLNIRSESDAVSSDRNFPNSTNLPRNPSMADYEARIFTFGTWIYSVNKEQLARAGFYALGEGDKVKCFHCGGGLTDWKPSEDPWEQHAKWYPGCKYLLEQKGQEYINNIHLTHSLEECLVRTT

His-BIR3 (241-356, XIAP) = target: T2, His-BIR3 (241-356, XIAP) (Homo sapiens, UniProt P98170); assay: XIAP-BIR3/SMAC Homogeneous Time Resolved Fluorescence (HTRF) Assay; type: binding; conditions: fluorescein labeled SMAC peptide
T2 construct: additions of His-BIR3 (241-356, XIAP), fluorescein labeled SMAC peptide
T2 sequence (P98170 241-356): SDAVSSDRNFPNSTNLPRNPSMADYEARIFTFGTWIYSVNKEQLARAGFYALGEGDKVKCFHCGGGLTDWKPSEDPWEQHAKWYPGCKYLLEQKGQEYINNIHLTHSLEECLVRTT

Structure (SMILES) | IC50 [1] [nM] | IC50 (His-BIR3 (241-356, XIAP)) [nM]
CN[C@@H](C)C(=O)N[C@H](C(=O)N1C[C@@H]2C[C@H]1C(=O)N[C@@H](Cc1ccc3ccccc3c1)C(=O)N[C@H](C(=O)O)Cc1ccc(cc1)OC/C=C/C[C@H]1C[C@@H](C(=O)N[C@@H](Cc3ccc4ccccc4c3)C(=O)N[C@H](C(=O)NS(=O)(=O)C3CC3)Cc3ccc(cc3)OCc3cnnn32)N(C(=O)[C@@H](NC(=O)[C@H](C)NC)C(C)(C)C)C1)C(C)(C)C [Example 102] | 35 | 10
CN[C@@H](C)C(=O)N[C@H](C(=O)N1C[C@@H]2C[C@H]1C(=O)N[C@@H](C)C(=O)N[C@H](C(=O)NS(=O)(=O)C1CC1)Cc1ccc(cc1)OCc1cn(nn1)[C@H]1C[C@@H](C(=O)N[C@@H](Cc3ccc4ccccc4c3)C(=O)N[C@H](C(=O)O)Cc3ccc(cc3)OC/C=C/CO2)N(C(=O)[C@@H](NC(=O)[C@H](C)NC)C(C)(C)C)C1)C(C)(C)C [Example 103] | 2.9 | 67.2
CN[C@@H](C)C(=O)N[C@H](C(=O)N1C[C@@H]2C[C@H]1C(=O)N[C@@H](Cc1ccc3ccccc3c1)C(=O)N[C@H](C(=O)O)Cc1ccc(cc1)OC/C=C/CO[C@H]1C[C@@H](C(=O)N[C@@H](C(c3ccccc3)c3ccccc3)C(=O)N[C@H](C(=O)NS(=O)(=O)C3CC3)Cc3ccc(cc3)OCc3cn2nn3)N(C(=O)[C@@H](NC(=O)[C@H](C)NC)C(C)(C)C)C1)C(C)(C)C [Example 104] | 8.7 | 105
CN[C@@H](C)C(=O)N[C@H](C(=O)N1C[C@@H]2C[C@H]1C(=O)N[C@@H](Cc1ccc3ccccc3c1)C(=O)N[C@H](C(=O)O)Cc1ccc(cc1)OC/C=C/CO[C@H]1C[C@@H](C(=O)N3Cc4ccccc4C[C@H]3C(=O)N[C@H](C(=O)NS(=O)(=O)C3CC3)Cc3ccc(cc3)OCc3cn2nn3)N(C(=O)[C@@H](NC(=O)[C@H](C)NC)C(C)(C)C)C1)C(C)(C)C [Example 105] | 13.2 | 49.7
CN[C@@H](C)C(=O)N[C@H](C(=O)N1C[C@@H]2C[C@H]1C(=O)N[C@@H](Cc1ccc3ccccc3c1)C(=O)N[C@H](C(=O)O)Cc1ccc(cc1)OC/C=C/CO[C@H]1C[C@@H](C(=O)N[C@@H](Cc3ccc(-c4ccccc4)cc3)C(=O)N[C@H](C(=O)NS(=O)(=O)C3CC3)Cc3ccc(cc3)OCc3cn2nn3)N(C(=O)[C@@H](NC(=O)[C@H](C)NC)C(C)(C)C)C1)C(C)(C)C [Example 106] | 1.7 | 17.9
CC[C@H](NC(=O)[C@H](C)NC)C(=O)N1C[C@@H]2C[C@H]1C(=O)N[C@@H](Cc1ccc3ccccc3c1)C(=O)N[C@H](C(=O)NS(=O)(=O)C1CC1)Cc1ccc(cc1)OCc1cn(nn1)[C@H]1C[C@@H](C(=O)N[C@@H](Cc3ccc4ccccc4c3)C(=O)N[C@H](C(=O)O)Cc3ccc(cc3)OC/C=C/CO2)N(C(=O)[C@@H](NC(=O)[C@H](C)NC)C(C)(C)C)C1 [Example 107] | 1.7 | 26.1
CN[C@@H](C)C(=O)N[C@H](C(=O)N1C[C@@H]2C[C@H]1C(=O)N[C@@H](Cc1ccc3ccccc3c1)C(=O)N[C@H](C(=O)NS(=O)(=O)C1CC1)Cc1ccc(cc1)OCc1cn(nn1)[C@H]1C[C@@H](C(=O)N[C@@H](Cc3ccc4ccccc4c3)C(=O)N[C@H](C(=O)O)Cc3ccc(cc3)OC/C=C/CO2)N(C(=O)[C@@H](NC(=O)[C@H](C)NC)C(C)(C)C)C1)C1CCCCC1 [Example 108] | 7.8 | 90.3
CN[C@@H](C)C(=O)N[C@H](C(=O)N1C[C@@H]2C[C@H]1C(=O)N[C@@H](Cc1ccc3ccccc3c1)C(=O)N[C@H](C(=O)NS(=O)(=O)C1CC1)Cc1ccc(cc1)OCc1cn(nn1)[C@H]1C[C@@H](C(=O)N[C@@H](Cc3ccc4ccccc4c3)C(=O)N[C@H](C(=O)O)Cc3ccc(cc3)OC/C=C/CO2)N(C(=O)[C@@H](NC(=O)[C@H](C)NC)C(C)(C)C)C1)C1CCOCC1 [Example 109] | 4.4 | 44.3
CN[C@@H](C)C(=O)N[C@H](C(=O)N1C[C@@H]2C[C@H]1C(=O)N[C@@H](Cc1ccc3ccccc3c1)C(=O)N[C@H](C(=O)NS(=O)(=O)C1CC1)Cc1ccc(cc1)OCc1cn(nn1)[C@H]1C[C@@H](C(=O)N[C@@H](Cc3ccc4ccccc4c3)C(=O)N[C@H](C(=O)O)Cc3ccc(cc3)OC/C=C/CO2)N(C(=O)[C@@H](NC(=O)[C@H](C)NC)C(C)(C)C)C1)C1CCNCC1 [Example 110] | 1.5 | 10
CN[C@@H](C)C(=O)N[C@H](C(=O)N1C[C@@H]2C[C@H]1C(=O)N[C@@H](Cc1ccc3ccccc3c1)C(=O)N[C@H](C(=O)O)Cc1ccc(cc1)OC/C=C/CO[C@H]1C[C@@H](C(=O)N[C@@H](Cc3ccc4ccccc4c3)C(=O)N[C@H](C(=O)NS(=O)(=O)C3CC3)Cc3ccc(cc3)OCc3cn2nn3)N(C(=O)[C@H](NC(=O)[C@H](C)NC)[C@@H](C)O)C1)C(C)(C)C [Example 111] | 2.6 | 34.1
CN[C@@H](C)C(=O)N[C@H](C(=O)N1C[C@@H]2C[C@H]1C(=O)N[C@@H](Cc1ccc3ccccc3c1)C(=O)N[C@H](C(=O)O)Cc1ccc(cc1)OC/C=C/CO[C@H]1C[C@@H](C(=O)N[C@@H](Cc3ccc(-c4ccc(O)cc4)cc3)C(=O)N[C@H](C(=O)NS(=O)(=O)C3CC3)Cc3ccc(cc3)OCc3cn2nn3)N(C(=O)[C@@H](NC(=O)[C@H](C)NC)C(C)(C)C)C1)C(C)(C)C [Example 113] | 7.1 | 13.5
CN[C@@H](C)C(=O)N[C@H](C(=O)N1C[C@@H]2C[C@H]1C(=O)N[C@@H](Cc1ccc3ccccc3c1)C(=O)N[C@H](C(=O)O)Cc1ccc(cc1)OC/C=C/CO[C@H]1C[C@@H](C(=O)N[C@@H](Cc3ccc(-c4cccc(F)c4)cc3)C(=O)N[C@H](C(=O)NS(=O)(=O)C3CC3)Cc3ccc(cc3)OCc3cn2nn3)N(C(=O)[C@@H](NC(=O)[C@H](C)NC)C(C)(C)C)C1)C(C)(C)C [Example 115] | 11.1 | 18.1
CN[C@@H](C)C(=O)N[C@H](C(=O)N1C[C@@H]2C[C@H]1C(=O)N[C@@H](Cc1ccc3ccccc3c1)C(=O)N[C@H](C(=O)O)Cc1ccc(cc1)OC/C=C/CO[C@H]1C[C@@H](C(=O)N[C@@H](Cc3cccc(-c4cccnc4)c3)C(=O)N[C@H](C(=O)NS(=O)(=O)C3CC3)Cc3ccc(cc3)OCc3cn2nn3)N(C(=O)[C@@H](NC(=O)[C@H](C)NC)C(C)(C)C)C1)C(C)(C)C [Example 116] | 20.1 | 30.8
CN[C@@H](C)C(=O)N[C@H](C(=O)N1C[C@@H]2C[C@H]1C(=O)N[C@@H](Cc1ccc3ccccc3c1)C(=O)N[C@H](C(=O)O)Cc1ccc(cc1)OC/C=C/CO[C@H]1C[C@@H](C(=O)N[C@@H](Cc3cccc(-c4ccc(CO)cc4)c3)C(=O)N[C@H](C(=O)NS(=O)(=O)C3CC3)Cc3ccc(cc3)OCc3cn2nn3)N(C(=O)[C@@H](NC(=O)[C@H](C)NC)C(C)(C)C)C1)C(C)(C)C [Example 117] | 11.3 | 9.4
CN[C@@H](C)C(=O)N[C@H](C(=O)N1C[C@@H]2C[C@H]1C(=O)N[C@@H](Cc1ccc3ccccc3c1)C(=O)N[C@H](C(=O)O)Cc1ccc(cc1)OC/C=C/CO[C@H]1C[C@@H](C(=O)N[C@@H](Cc3ccc4ccccc4c3)C(=O)N[C@H](C(=O)NS(=O)(=O)c3ccccn3)Cc3ccc(cc3)OCc3cn2nn3)N(C(=O)[C@@H](NC(=O)[C@H](C)NC)C(C)(C)C)C1)C(C)(C)C [Example 118] | 1.8 | 6.3
CN[C@@H](C)C(=O)N[C@H](C(=O)N1C[C@@H]2C[C@H]1C(=O)N[C@@H](Cc1ccc3ccccc3c1)C(=O)N[C@H](C(=O)O)Cc1ccc(cc1)CCCC[C@H]1C[C@@H](C(=O)N[C@@H](Cc3ccc4ccccc4c3)C(=O)N[C@H](C(=O)NS(=O)(=O)C3CC3)Cc3ccc(cc3)OCc3cn2nn3)N(C(=O)[C@@H](NC(=O)[C@H](C)NC)C(C)(C)C)C1)C(C)(C)C [Example 119] | 3.4 | 2.8
CN[C@@H](C)C(=O)N[C@H](C(=O)N1C[C@@H]2C[C@H]1C(=O)N[C@@H](Cc1ccc3ccccc3c1)C(=O)N[C@H](C(=O)O)Cc1ccc(cc1)OCCCCO[C@H]1C[C@@H](C(=O)N[C@@H](Cc3ccc4ccccc4c3)C(=O)N[C@H](C(=O)NS(=O)(=O)C3CC3)Cc3ccc(cc3)OCc3cn2nn3)N(C(=O)[C@@H](NC(=O)[C@H](C)NC)C(C)(C)C)C1)C(C)(C)C [Example 120] | 8 | 42
CN[C@@H](C)C(=O)N[C@H](C(=O)N1C[C@@H]2C[C@H]1C(=O)N[C@@H](Cc1ccc3ccccc3c1)C(=O)N[C@H](C(=O)O)Cc1ccc(cc1)OCc1cn(nn1)[C@H]1C[C@@H](C(=O)N[C@@H](Cc3ccc4ccccc4c3)C(=O)N[C@H](C(=O)O)Cc3ccc(cc3)OCCCCO2)N(C(=O)[C@@H](NC(=O)[C@H](C)NC)C(C)(C)C)C1)C(C)(C)C [Example 121] | 7.9 | 11.6
CN[C@@H](C)C(=O)N[C@H](C(=O)N1C[C@@H]2C[C@H]1C(=O)N[C@@H](Cc1ccc3ccccc3c1)C(=O)N[C@H](C(=O)O)Cc1ccc(cc1)OCc1cn(nn1)[C@H]1C[C@@H](C(=O)N[C@@H](Cc3ccc4ccccc4c3)C(=O)N[C@H](C(=O)NS(=O)(=O)C3CC3)Cc3ccc(cc3)OCCCCO2)N(C(=O)[C@@H](NC(=O)[C@H](C)NC)C(C)(C)C)C1)C(C)(C)C [Example 122] | 11.3 | 12.9
CN[C@@H](C)C(=O)N[C@H](C(=O)N1C[C@@H]2C[C@H]1C(=O)N[C@@H](Cc1ccc3ccccc3c1)C(=O)N[C@H](C(=O)O)Cc1ccc(cc1)OCc1cn(nn1)[C@H]1C[C@@H](C(=O)N[C@@H](Cc3ccc4ccccc4c3)C(=O)N[C@H](C(=O)NS(=O)(=O)C3CC3)Cc3ccc(cc3)OCCCCO2)N(C(=O)[C@@H](NC(=O)[C@H](C)NC)C(C)(C)C)C1)C(C)(C)C [Example 123] | 5.4 | 7.8
